Laboratory results from US7235534B2, “Antisense strategy to modulate estrogen receptor response (ER α and/or ER β )” (Institut de Cardiologie de Montreal, priority 2001, dated 2007).

Test system: Porcine aortic endothelial cells (PAEC)
Assay: Chemotactic assay on PAEC (modified Boyden chamber)
Format: cell-based
Method: Cell migration was evaluated using a modified Boyden 48-well microchamber kit (NeuroProbe, Cabin John, MD.). Near confluent EC and PSMC were rinsed with DMEM and trypsinized. Cells were resuspended in DMEM, 5% FBS, and antibiotics, and a cell count was obtained. […] ER antagonists were added 5 minutes before 17βE. Cells were harvested by trypsinization and resuspended in DMEM, 1% FBS, and antibiotics at a concentration of 5×10^5 cells/ml. […] The two sections of the system were separated by a porous polycarbonate filter (5-μm pores), pre-treated with a gelatine solution (1.5 mg/ml), and assembled. Five hours post incubation at 37° C., the nonmigrated cells were scraped with a plastic policeman, and the migrated cells were stained using a Quick-Diff solution. The filter was then mounted on a glass slide, and migrated cells were counted using a microscope adapted to a video camera to obtain a computer-digitized image.
Cell migration was evaluated using a modified Boyden 48-well microchamber kit (NeuroProbe, Cabin John, MD.). Near confluent PAEC and PSMC were rinsed with DMEM and trypsinized. Cells were resuspended in DMEM, 5% FBS, and antibiotics, and a cell count was obtained. PAEC and PSMC were seeded at 2.5×10^5 cells/well of 6-well tissue culture plates; stimulated for 24 hours in DMEM, 5% FBS, and antibiotics with or without antisense oligomers (10^−6 mol/L) and starved for 48 hours in DMEM, 0.1% FBS, and antibiotics with or without antisense oligomers (10^−6 mol/L daily) with or without 17βE (10^−8 mol/L). Cells were harvested by trypsinization and resuspended in DMEM, 1% FBS, and antibiotics at a concentration of 5×10^5 cells/mL. Fifty μL of this cell suspension with or without antisense oligomers (10^−6 mol/L) treated with or without 17βE (10^−8 mol/L) was added in the higher-chamber of the modified Boyden chamber apparatus, and the lower chamber was filled with DMEM, 1% FBS, antibiotics plus the desired concentration of agonist either 17βE (10^−8 mol/L) or platelet-derived growth factor-BB (PDGF-BB). The 2 sections of the system were separated by a porous polycarbonate filter (5-μm pores size), pretreated with a gelatine solution (1.5 mg/mL), and assembled. Five hours postincubation at 37° C., the non-migrated cells were scraped with a plastic policeman, and the migrated cells were stained using a Quick-Diff solution (Shandon Inc). The filter was then mounted on a glass slide, and migrated cells were counted using a microscope adapted to a video camera to obtain a computer-digitized image.

C[C@]12CC[C@@H]3c4ccc(O)cc4CC[C@H]3[C@@H]1CC[C@@H]2O [17βE, 17-beta-estradiol]
stimulation of PAEC migration as compared to bFGF (10 ng/ml) alone (17βE 10^−8M combined with bFGF): 121% | induction of PAEC migration as compared to DMEM 1% (17βE 10^−8 mol/L, 5 hours): 4.63 fold
